# From patent publication US4530836A, “Peptide” (Amano Pharmaceutical Co., Ltd., priority 1983, dated 1985)
# Read-outs that look alike come from different tables or passages of the source. Starred links: 1 amine or outer side, 2 acyl side, 3 side chain; linkers in the order of their positions; H or OH if unused. Non-standard residues stand in square brackets, D forms with d. Residues, ends and D or L forms follow the SMILES beside them. sY = N[C@@H](Cc1ccc(OS(=O)(=O)O)cc1)C(=O)O; Glutaryl = O=C(CCCC(=O)[*:2])[*:1]; pGlu = O=C1CC[C@@H](C(=O)O)N1; Suc = O=C(CCC(=O)[*:2])[*:1]
# Experiments:
# [1] = test system: gallbladder; assay type: in vivo, guinea pig; settings: for Gallbladder contracting activity (in words): compared with CCK-8
# Method: This test was in accordance with the method of G. Bertaccini et al. [Br. J. Pharmacol., 34, 291-310 (1968)].
# Male Hartley guinea pigs (weighing 400-600 g) was anesthetized with urethane and fixed at the supine position. After laparotomy, the top of the gallbladder was clamped with a Serre-fine which was connected to a FD pickup (model: SB-IT, NIHON KOHDEN KOGYO Co., Ltd.), and the contraction was recorded on a recorder (model: PJB-3012, made by the above company) through a preamplifier (model: RUP-25, made by the above company). A standard solution and the invented peptide solutions were injected into the jugular vein, and the relative potency was determined from the peak height of the gallbladder contraction.
# [2] = test system: pancreatic external secretion; test: Acceleration of pancreatic external secretion (method of Dockray), i.v. in rats, compared with CCK-8; assay type: in vivo, rat; settings: male Wistar rats, 30 minutes after administration
# Method: This test was conducted in accordance with the method of Dockray [J. Physiol., 225, 679-692 (1972)]. Male Wistar rats (weighing about 280 g) were deprived for 24 hours and under anesthesia the gastric pylorus and the duodenal side end of the common hepatic duct were ligated. A canula for collection of pancreatic juice was inserted into the duct in the retrograde fashion. The bile was led into the duodenum. Varying concentrations of the control solution (CCK-8 solution) and solutions of the invented peptides in a volume of 50 μl were administered intravenously every one hour, thus determining the increment in the secretion rate of the pancreatic juice and protein during 30 minutes after administration, wherein the amount of the whole protein secreted was determined from the ultraviolet absorbance at 280 nm of the pancreatic juice secreted.
# [3] = test system: gastric acid secretion; test: Gastric acid secretion accelerating activity in Shay rats; assay type: in vivo, rat; settings: pylorus-ligated male Wistar rats, i.v., gastric juice 2 hours after administration; tetragastrin = 1.0
# Method: This test was conducted with Shay rats [H, Shay et al., Gastroenterology, 5, 43 (1945)] prepared. Employing male Wistar rats (weighing 270-310 g) deprived for 24 hours, the gastric pylorus was ligated under ether-anesthesia. Immediately thereafter, the invented peptides and tetragastrin as a control were administered intravenously. Gastric juice was withdrawn 2 hours after administration, and its amount and the total amount of acid secreted were measured to determine the relative potency based on tetragastrin.
# [4] = test system: pancreatic external secretion; test: Pancreatic external secretion accelerating activity (protein secretion), compared with tetragastrin; assay type: in vivo, rat; settings: rats, i.v., increment in protein secretion rate during 30 minutes (UV 280 nm); tetragastrin = 1.0
# Method: This test was conducted in accordance with the method of Dockray [J. Physiol., 225, 679-692 (1972)]. Male Wistar rats (weighing about 280 g) were deprived for 24 hours and under anesthesia the gastric pylorus and the duodenal side end of the common hepatic duct were ligated. A canula for collection of pancreatic juice was inserted into the duct in the retrograde fashion. The bile was led into the duodenum. […] The test was conducted in the same manner as stated already. The increment in the secretion rate of the protein in the pancreatic during 30 minutes after administration of the test solution was determined from the ultraviolet absorbance at 280 nm of the pancreatic juice. The found values were compared with that of tetragastrin.
# [5] = male Hartley guinea pigs, injection into jugular vein, from peak height of gallbladder contraction, CCK-8 = 100
Compound,"Gallbladder contracting activity, relative potency ([1]; guinea pig, in vivo)",Gallbladder contracting activity (in words) ([1]; guinea pig),Increased amount of the pancreatic juice secreted (in words) [2],"Gastric acid secretion accelerating activity, relative potency [3]","Pancreatic external secretion accelerating activity, relative potency [4]","Gallbladder contracting activity, relative potency [1, 5]"
"CSCC[C@H](NC(=O)[C@H](Cc1ccc(OS(=O)(=O)O)cc1)NC(=O)[C@@H](N)CC(=O)O)C(=O)NCC(=O)N[C@@H](Cc1c[nH]c2ccccc12)C(=O)N[C@@H](CCSC)C(=O)N[C@@H](CC(=O)O)C(=O)N[C@@H](Cc1ccccc1)C(N)=O [CCK-8, Asp-Tyr(SO3 H)-Met-Gly-Trp-Met-Asp-Phe-NH2, reference compound]",100,–,–,–,–,–
"CSCC[C@H](NC(=O)[C@H](Cc1c[nH]c2ccccc12)NC(=O)CNC(=O)[C@H](CCSC)NC(=O)[C@H](Cc1ccc(OS(=O)(=O)O)cc1)NC(=O)CCC(=O)O)C(N)=O [Compound I, Suc-Tyr(SO3 H)-Met-Gly-Trp-Met-NH2] (Suc-[sY]MGWM-NH2)",0,no activity,no active effect,–,–,–
"CSCC[C@H](NC(=O)[C@H](Cc1ccc(OS(=O)(=O)O)cc1)NC(=O)CCC(=O)O)C(=O)NCC(=O)N[C@@H](Cc1c[nH]c2ccccc12)C(=O)N[C@@H](CCSC)C(=O)N[C@@H](CC(=O)O)C(N)=O [Compound II, Suc-Tyr(SO3 H)-Met-Gly-Trp-Met-Asp-NH2] (Suc-[sY]MGWMD-NH2)",0,no activity,no active effect,–,–,–
"CSCC[C@H](NC(=O)[C@H](Cc1c[nH]c2ccccc12)NC(=O)[C@@H](Cc1c[nH]c2ccccc12)NC(=O)[C@H](CCSC)NC(=O)[C@H](Cc1ccc(OS(=O)(=O)O)cc1)NC(=O)CCC(=O)O)C(=O)N[C@@H](CC(=O)O)C(=O)N[C@@H](Cc1ccccc1)C(N)=O [Compound IV, Suc-Tyr(SO3 H)-Met-D-Trp-Trp-Met-Asp-Phe-NH2] (Suc-[sY]M[dW]WMDF-NH2)",5.0,mild,comparable to that of CCK-8,–,–,–
"CSCC[C@H](NC(=O)[C@H](Cc1ccc(OS(=O)(=O)O)cc1)NC(=O)[C@H](CC(=O)O)NC(=O)CCN)C(=O)NCC(=O)N[C@@H](Cc1c[nH]c2ccccc12)C(=O)N[C@@H](CCSC)C(=O)N[C@@H](CC(=O)O)C(=O)N[C@@H](Cc1ccccc1)C(N)=O [Compound IX, β-Ala-Asp-Tyr(SO3 H)-Met-Gly-Trp-Met-Asp-Phe-NH2]",113,comparable activities with CCK-8,about half of that of CCK-8,–,–,–
"CSCC[C@H](NC(=O)[C@H](Cc1c[nH]c2ccccc12)NC(=O)[C@@H](Cc1c[nH]c2ccccc12)NC(=O)[C@H](CCSC)NC(=O)[C@H](Cc1ccc(OS(=O)(=O)O)cc1)NC(=O)CCCC(=O)O)C(=O)N[C@@H](CC(=O)O)C(=O)N[C@@H](Cc1ccccc1)C(N)=O [Compound V, Glt-Tyr(SO3 H)-Met-D-Trp-Trp-Met-Asp-Phe-NH2] (Glutaryl-[sY]M[dW]WMDF-NH2)",< 1.0,little activity,comparable to that of CCK-8,–,–,–
"CSCC[C@H](NC(=O)[C@H](Cc1ccc(OS(=O)(=O)O)cc1)NC(=O)[C@H](CC(=O)O)NC(=O)CN)C(=O)NCC(=O)N[C@@H](Cc1c[nH]c2ccccc12)C(=O)N[C@@H](CCSC)C(=O)N[C@@H](CC(=O)O)C(=O)N[C@@H](Cc1ccccc1)C(N)=O [Compound VIII, Gly-Asp-Tyr(SO3 H)-Met-Gly-Trp-Met-Asp-Phe-NH2]",97,comparable activities with CCK-8,comparable to that of CCK-8,–,–,–
"CSCC[C@H](NC(=O)[C@H](Cc1c[nH]c2ccccc12)NC(=O)CNC(=O)[C@H](Cc1ccc(OS(=O)(=O)O)cc1)NC(=O)[C@H](C)NC(=O)CCCC(=O)O)C(=O)N[C@@H](CC(=O)O)C(=O)N[C@@H](Cc1ccccc1)C(N)=O [Compound X, Glt-Ala-Tyr(SO3 H)-Gly-Trp-Met-Asp-Phe-NH2] (Glutaryl-A[sY]GWMDF-NH2)",–,–,–,6.1,258.8,–
"CSCC[C@H](NC(=O)[C@H](Cc1c[nH]c2ccccc12)NC(=O)CNC(=O)[C@H](Cc1ccc(OS(=O)(=O)O)cc1)NC(=O)[C@H](C)NC(=O)[C@@H]1CCC(=O)N1)C(=O)N[C@@H](CC(=O)O)C(=O)N[C@@H](Cc1ccccc1)C(N)=O [Compound XI, pGlu-Ala-Tyr(SO3 H)-Gly-Trp-Met-Asp-Phe-NH2] ([pGlu]A[sY]GWMDF-NH2)",–,–,–,2.0,50.0,–
"CSCC[C@H](NC(=O)[C@@H](N)Cc1c[nH]c2ccccc12)C(=O)N[C@@H](CC(=O)O)C(=O)N[C@@H](Cc1ccccc1)C(N)=O [Tetragastrin, reference compound]",–,–,–,1.0,1.0,–
Suc-Phe(NHSO3 H)-Met-Gly-Trp-Met-Asp-Phe-NH2 [Compound VII],–,little activity,no active effect,–,–,< 1.0
Suc-Tyr(SO3 H)-Met-D-Ala-Trp-Met-Asp-Phe-NH2 [Compound III],–,mild,–,–,–,8.7
